The NIST ThermoML archive (doi:10.1016/j.jct.2006.05.004)

Assays:
[1] = 298.15 K; 101.33 kPa; Liquid
[2] = refractive index (Na D-line) (dimensionless); conditions: 298.15 K; 101.33 kPa; Liquid; Standard Abbe refractometry
[3] = xn = mol fraction of the nth substance listed; conditions: 298.15 K, 101 kPa, Liquid
[4] = excess molar enthalpy (molar enthalpy of mixing); xn = mol fraction of the nth substance listed; conditions: 298.15 K, 101 kPa, Liquid

COC(C)=O [methyl ethanoate]
Conditions	mass density [kg/m3]	refractive index
[1]	926.73	–
[2]	–	1.3585

CCCC(=O)OC [methyl butanoate]
Conditions	mass density [kg/m3]	refractive index
[1]	892.42	–
[2]	–	1.386

BrCCCBr [1,3-dibromopropane] + COC=O
Conditions	excess molar enthalpy [kcal/mol]	mass density [kg/m3]
[3], x2 = 0.168	–	1858.59
[3], x2 = 0.2514	–	1796.92
[3], x2 = 0.3294	–	1735.49
[3], x2 = 0.4017	–	1674.57
[3], x2 = 0.4684	–	1614.73
[3], x2 = 0.5278	–	1558.51
[3], x2 = 0.591	–	1495.15
[3], x2 = 0.6438	–	1439.24
[3], x2 = 0.7014	–	1374.75
[3], x2 = 0.7953	–	1261.18
[3], x2 = 0.8394	–	1203.31
[3], x2 = 0.8849	–	1141.17
[3], x2 = 0.9258	–	1082.23
[4], x2 = 0.0766	0.0726	–
[4], x2 = 0.1698	0.136	–
[4], x2 = 0.2646	0.178	–
[4], x2 = 0.3543	0.204	–
[4], x2 = 0.4503	0.219	–
[4], x2 = 0.5147	0.221	–
[4], x2 = 0.5752	0.216	–
[4], x2 = 0.6318	0.206	–
[4], x2 = 0.6814	0.192	–
[4], x2 = 0.7238	0.176	–
[4], x2 = 0.7605	0.159	–
[4], x2 = 0.8277	0.123	–
[4], x2 = 0.8783	0.0928	–
[4], x2 = 0.9299	0.0593	–

BrCCCCBr [1,4-dibromobutane] + COC=O
Conditions	excess molar enthalpy [kcal/mol]	mass density [kg/m3]
[3], x2 = 0.0901	–	1776.76
[3], x2 = 0.1948	–	1721.83
[3], x2 = 0.283	–	1670.26
[3], x2 = 0.3632	–	1619.15
[3], x2 = 0.4351	–	1569.44
[3], x2 = 0.5042	–	1517.68
[3], x2 = 0.5678	–	1466.2
[3], x2 = 0.6267	–	1414.75
[3], x2 = 0.6804	–	1364.36
[3], x2 = 0.7742	–	1267.13
[3], x2 = 0.8172	–	1217.73
[3], x2 = 0.8611	–	1164.21
[3], x2 = 0.8985	–	1115.55
[3], x2 = 0.937	–	1062.14
[3], x2 = 0.9687	–	1015.8
[4], x2 = 0.1163	0.0944	–
[4], x2 = 0.2218	0.152	–
[4], x2 = 0.3327	0.205	–
[4], x2 = 0.4395	0.235	–
[4], x2 = 0.518	0.245	–
[4], x2 = 0.581	0.243	–
[4], x2 = 0.5984	0.241	–
[4], x2 = 0.6591	0.226	–
[4], x2 = 0.7346	0.196	–
[4], x2 = 0.8107	0.155	–
[4], x2 = 0.8851	0.104	–
[4], x2 = 0.9503	0.0502	–

BrCCCCBr [1,4-dibromobutane] + CCCC(=O)OC
Conditions	excess molar enthalpy [kcal/mol]	mass density [kg/m3]
[3], x2 = 0.121	–	1710.83
[3], x2 = 0.1809	–	1656.55
[3], x2 = 0.2384	–	1604.18
[3], x2 = 0.2953	–	1552.31
[3], x2 = 0.3601	–	1492.93
[3], x2 = 0.4182	–	1439.44
[3], x2 = 0.4848	–	1377.96
[3], x2 = 0.5382	–	1328.46
[3], x2 = 0.5989	–	1272
[3], x2 = 0.653	–	1221.36
[3], x2 = 0.7699	–	1111.48
[3], x2 = 0.8252	–	1059.19
[3], x2 = 0.8804	–	1006.8
[4], x2 = 0.0662	0.0111	–
[4], x2 = 0.1525	0.019	–
[4], x2 = 0.2456	0.0232	–
[4], x2 = 0.3392	0.0233	–
[4], x2 = 0.4222	0.019	–
[4], x2 = 0.4708	0.0156	–
[4], x2 = 0.5515	0.00743	–
[4], x2 = 0.6276	0.000621	–
[4], x2 = 0.6882	-0.00366	–
[4], x2 = 0.7845	-0.0054	–
[4], x2 = 0.8702	-0.00452	–
[4], x2 = 0.9455	-0.00256	–

BrCCCCCBr [1,5-dibromopentane] + CCCCC(=O)OC
Conditions	excess molar enthalpy [kcal/mol]	mass density [kg/m3]
[3], x2 = 0.0687	–	1640.97
[3], x2 = 0.1285	–	1593.96
[3], x2 = 0.1833	–	1550.6
[3], x2 = 0.2445	–	1501.98
[3], x2 = 0.3066	–	1452.48
[3], x2 = 0.4193	–	1362.14
[3], x2 = 0.4804	–	1312.78
[3], x2 = 0.5408	–	1263.86
[3], x2 = 0.601	–	1214.87
[3], x2 = 0.6553	–	1170.47
[3], x2 = 0.7137	–	1122.58
[3], x2 = 0.7698	–	1076.41
[3], x2 = 0.822	–	1033.27
[3], x2 = 0.8841	–	981.75
[4], x2 = 0.0709	0.011	–
[4], x2 = 0.1603	0.0179	–
[4], x2 = 0.2511	0.0203	–
[4], x2 = 0.3436	0.0192	–
[4], x2 = 0.4221	0.0158	–
[4], x2 = 0.4895	0.0112	–
[4], x2 = 0.5345	0.00609	–
[4], x2 = 0.5389	0.00564	–
[4], x2 = 0.5838	0.00184	–
[4], x2 = 0.606	-0.00203	–
[4], x2 = 0.6821	-0.00554	–
[4], x2 = 0.7721	-0.00777	–
[4], x2 = 0.8617	-0.00657	–
[4], x2 = 0.943	-0.000574	–

BrCCCBr [1,3-dibromopropane] + CCCCC(=O)OC
Conditions	excess molar enthalpy [kcal/mol]	mass density [kg/m3]
[3], x2 = 0.0534	–	1896.4
[3], x2 = 0.0937	–	1841.97
[3], x2 = 0.1477	–	1771.31
[3], x2 = 0.188	–	1720.07
[3], x2 = 0.2439	–	1650.83
[3], x2 = 0.2975	–	1586.35
[3], x2 = 0.3439	–	1532.03
[3], x2 = 0.4116	–	1455.16
[3], x2 = 0.4656	–	1395.81
[3], x2 = 0.5216	–	1335.88
[3], x2 = 0.5922	–	1262.69
[3], x2 = 0.6481	–	1206.41
[3], x2 = 0.7047	–	1151.1
[3], x2 = 0.7835	–	1076.35
[3], x2 = 0.8493	–	1016.07
[3], x2 = 0.9201	–	953.2
[4], x2 = 0.0492	0.00571	–
[4], x2 = 0.1163	0.00925	–
[4], x2 = 0.1938	0.00973	–
[4], x2 = 0.2736	0.00767	–
[4], x2 = 0.338	0.00421	–
[4], x2 = 0.41	-0.00237	–
[4], x2 = 0.4582	-0.00743	–
[4], x2 = 0.4998	-0.0112	–
[4], x2 = 0.5481	-0.0146	–
[4], x2 = 0.6786	-0.0158	–
[4], x2 = 0.7994	-0.0132	–
[4], x2 = 0.9065	-0.00848	–

BrCCBr [1,2-dibromoethane] + COC=O
Conditions	excess molar enthalpy [kcal/mol]	mass density [kg/m3]
[3], x2 = 0.0941	–	2084.41
[3], x2 = 0.1513	–	2030.58
[3], x2 = 0.2019	–	1980.75
[3], x2 = 0.251	–	1931.96
[3], x2 = 0.2967	–	1881.94
[3], x2 = 0.3904	–	1784.54
[3], x2 = 0.4985	–	1662.03
[3], x2 = 0.5973	–	1543.27
[3], x2 = 0.7057	–	1404.1
[3], x2 = 0.7483	–	1346.2
[3], x2 = 0.7967	–	1278.68
[3], x2 = 0.8478	–	1205.01
[3], x2 = 0.8808	–	1155.98
[3], x2 = 0.9402	–	1064.28
[4], x2 = 0.0726	0.0561	–
[4], x2 = 0.1528	0.112	–
[4], x2 = 0.2426	0.156	–
[4], x2 = 0.3298	0.179	–
[4], x2 = 0.4034	0.19	–
[4], x2 = 0.4719	0.194	–
[4], x2 = 0.5315	0.192	–
[4], x2 = 0.5856	0.185	–
[4], x2 = 0.6347	0.175	–
[4], x2 = 0.6786	0.163	–
[4], x2 = 0.7171	0.15	–
[4], x2 = 0.7759	0.127	–
[4], x2 = 0.8639	0.0849	–
[4], x2 = 0.9405	0.041	–

BrCCCCCBr [1,5-dibromopentane] + COC(C)=O
Conditions	excess molar enthalpy [kcal/mol]	mass density [kg/m3]
[3], x2 = 0.0956	–	1647.08
[3], x2 = 0.1844	–	1601.35
[3], x2 = 0.2647	–	1557.01
[3], x2 = 0.3394	–	1512.51
[3], x2 = 0.4752	–	1423.41
[3], x2 = 0.5958	–	1333.86
[3], x2 = 0.6582	–	1282.77
[3], x2 = 0.7059	–	1241.33
[3], x2 = 0.7548	–	1196.56
[3], x2 = 0.8019	–	1150.87
[3], x2 = 0.8486	–	1102.92
[3], x2 = 0.8874	–	1060.93
[3], x2 = 0.9243	–	1019.18
[3], x2 = 0.9638	–	972.17
[4], x2 = 0.1045	0.0536	–
[4], x2 = 0.2048	0.0886	–
[4], x2 = 0.2959	0.115	–
[4], x2 = 0.3795	0.13	–
[4], x2 = 0.454	0.137	–
[4], x2 = 0.5171	0.137	–
[4], x2 = 0.5731	0.133	–
[4], x2 = 0.622	0.127	–
[4], x2 = 0.685	0.116	–
[4], x2 = 0.7322	0.103	–
[4], x2 = 0.7812	0.0893	–
[4], x2 = 0.8296	0.0734	–
[4], x2 = 0.874	0.0585	–
[4], x2 = 0.9245	0.0386	–
[4], x2 = 0.9655	0.0173	–
